# Values of other authors as cited in paper PMC6987128, “Target protein-oriented isolation of Hes1 dimer inhibitors using protein based methods” (Scientific Reports, 2020).
# System: NSCs
# Conditions: cited from earlier work
row,SMILES,differentiation of NSCs to neurons
1,COc1ccc(-c2cc(=O)c3c(O[C@@H]4O[C@H](CO[C@@H]5OC[C@@H](O)[C@H](O)[C@H]5O)[C@@H](O)[C@H](O)[C@H]4O)cc(OC)cc3o2)cc1 [agalloside],accelerated the differentiation of NSCs to neurons
2,C/C=C/C=C/C=C/[C@@H]1NCC[C@@H](O)[C@H]1C [inohanamine],accelerated the differentiation of NSCs to neurons
